# Where two headings read alike, the source gives them in different places.
# Columns and labels:
# [1] = test system: rapid-growing mycobacteria (RGM) isolates; assay: MIC (CLSI broth dilution), all RGM isolates; assay type: cell-based, nontuberculous mycobacteria; conditions: all 50 RGM isolates
# M. abscessus complex = assay: MIC (CLSI broth dilution), RGM isolates; assay type: cell-based
# M. chelonae = assay: MIC (CLSI broth dilution), RGM isolates; assay type: cell-based
# M. fortuitum group = assay: MIC (CLSI broth dilution), RGM isolates; assay type: cell-based
# M. immunogenum group = assay: MIC (CLSI broth dilution), RGM isolates; assay type: cell-based; conditions: M. immunogenum
# M. mucogenium group = assay: MIC (CLSI broth dilution), RGM isolates; assay type: cell-based
# M. smegmatis group = assay: MIC (CLSI broth dilution), RGM isolates; assay type: cell-based
smiles,measurement,setting,value
"CO[C@@]1(NC(=O)Cc2cccs2)C(=O)N2C(C(=O)O)=C(COC(N)=O)CS[C@@H]21 [FOX, cefoxitin]",MIC50,[1]; read-out: MIC50,32 mg/L
same,MIC90,[1]; read-out: MIC90,> 64 mg/L
same,MIC,"M. abscessus complex; Mycobacteroides abscessus, isolate 1, M. abscessus complex, erm gene type MAB30, read-out: MIC",32 mg/L
same,MIC,"M. abscessus complex; Mycobacteroides abscessus, isolate 2, M. abscessus complex, erm gene type MAB30, read-out: MIC",32 mg/L
same,MIC,"M. abscessus complex; Mycobacteroides abscessus, isolate 3, M. abscessus complex, erm gene type MAB30, read-out: MIC",32 mg/L
same,MIC,"M. abscessus complex; Mycobacteroides abscessus, isolate 4, M. abscessus complex, erm gene type massiliense, read-out: MIC",32 mg/L
same,MIC,"M. abscessus complex; Mycobacteroides abscessus, isolate 5, M. abscessus complex, erm gene type massiliense/subsp. abs hybrid, read-out: MIC",32 mg/L
same,MIC,"M. abscessus complex; Mycobacteroides abscessus, isolate 6, M. abscessus complex, erm gene type Type 1 abscessus, read-out: MIC",32 mg/L
same,MIC,"M. abscessus complex; Mycobacteroides abscessus, isolate 7, M. abscessus complex, erm gene type Type 1 abscessus, read-out: MIC",32 mg/L
same,MIC,"M. abscessus complex; Mycobacteroides abscessus, isolate 8, M. abscessus complex, erm gene type Type 1 abscessus, read-out: MIC",32 mg/L
same,MIC,"M. abscessus complex; Mycobacteroides abscessus, isolate 9, M. abscessus complex, erm gene type Type 1 abscessus, read-out: MIC",32 mg/L
same,MIC,"M. abscessus complex; Mycobacteroides abscessus, isolate 10, M. abscessus complex, erm gene type Type 1 abscessus, read-out: MIC",32 mg/L
same,MIC,"M. abscessus complex; Mycobacteroides abscessus, isolate 11, M. abscessus complex, erm gene type Type 6 abscessus, read-out: MIC",32 mg/L
same,MIC,"M. abscessus complex; Mycobacteroides abscessus, isolate 12, M. abscessus complex, erm gene type Type 6 abscessus, read-out: MIC",32 mg/L
same,MIC,"M. abscessus complex; Mycobacteroides abscessus, isolate 13, M. abscessus complex, erm gene type Type 6 abscessus, read-out: MIC",32 mg/L
same,MIC,"M. abscessus complex; Mycobacteroides abscessus, isolate 14, M. abscessus complex, erm gene type Type 6 abscessus, read-out: MIC",64 mg/L
same,MIC,"M. abscessus complex; Mycobacteroides abscessus, isolate 15, M. abscessus complex, erm gene type Type 7 abscessus, read-out: MIC",32 mg/L
same,MIC,"M. abscessus complex; Mycobacteroides abscessus, isolate 16, M. abscessus complex, erm gene type Type 7 abscessus, read-out: MIC",32 mg/L
same,MIC,"M. abscessus complex; Mycobacteroides abscessus, isolate 17, M. abscessus complex, erm gene type Type 8 abscessus, read-out: MIC",32 mg/L
same,MIC,"M. chelonae; Mycobacteroides chelonae, isolate 18, M. chelonae, read-out: MIC",> 64 mg/L
same,MIC,"M. chelonae; Mycobacteroides chelonae, isolate 19, M. chelonae, read-out: MIC",> 64 mg/L
same,MIC,"M. chelonae; Mycobacteroides chelonae, isolate 20, M. chelonae, read-out: MIC",> 64 mg/L
same,MIC,"M. chelonae; Mycobacteroides chelonae, isolate 21, M. chelonae, read-out: MIC",> 64 mg/L
same,MIC,"M. chelonae; Mycobacteroides chelonae, isolate 22, M. chelonae, read-out: MIC",> 64 mg/L
same,MIC,"M. fortuitum group; Mycolicibacterium fortuitum, isolate 23, M. fortuitum group, M. fortuitum, read-out: MIC",32 mg/L
same,MIC,"M. fortuitum group; Mycolicibacterium fortuitum, isolate 24, M. fortuitum group, M. fortuitum, read-out: MIC",> 64 mg/L
same,MIC,"M. fortuitum group; Mycolicibacterium fortuitum, isolate 25, M. fortuitum group, M. fortuitum, read-out: MIC",32 mg/L
same,MIC,"M. fortuitum group; Mycolicibacterium fortuitum, isolate 26, M. fortuitum group, M. porcinum, read-out: MIC",32 mg/L
same,MIC,"M. fortuitum group; Mycolicibacterium fortuitum, isolate 27, M. fortuitum group, M. porcinum, read-out: MIC",32 mg/L
same,MIC,"M. fortuitum group; Mycolicibacterium fortuitum, isolate 28, M. fortuitum group, M. porcinum/M. boenickei, read-out: MIC",32 mg/L
same,MIC,"M. fortuitum group; Mycolicibacterium fortuitum, isolate 29, M. fortuitum group, M. porcinum/M. boenickei, read-out: MIC",32 mg/L
same,MIC,"M. fortuitum group; Mycolicibacterium fortuitum, isolate 30, M. fortuitum group, M. porcinum/M. boenickei, read-out: MIC",≤ 16 mg/L
same,MIC,"M. fortuitum group; Mycolicibacterium fortuitum, isolate 31, M. fortuitum group, M. senegalense, read-out: MIC",32 mg/L
same,MIC,"M. fortuitum group; Mycolicibacterium fortuitum, isolate 32, M. fortuitum group, M. senegalense, read-out: MIC",32 mg/L
same,MIC,"M. fortuitum group; Mycolicibacterium fortuitum, isolate 33, M. fortuitum group, M. senegalense, read-out: MIC",< 16 mg/L
same,MIC,"M. fortuitum group; Mycolicibacterium fortuitum, isolate 34, M. fortuitum group, M. senegalense, read-out: MIC",32 mg/L
same,MIC,"M. immunogenum group; isolate 35, M. immunogenum group, read-out: MIC",> 64 mg/L
same,MIC,"M. immunogenum group; isolate 36, M. immunogenum group, read-out: MIC",> 64 mg/L
same,MIC,"M. immunogenum group; isolate 37, M. immunogenum group, read-out: MIC",> 64 mg/L
same,MIC,"M. immunogenum group; isolate 38, M. immunogenum group, read-out: MIC",> 64 mg/L
same,MIC,"M. mucogenium group; isolate 39, M. mucogenicum group, M. mucogenicum, read-out: MIC",≤ 16 mg/L
same,MIC,"M. mucogenium group; isolate 40, M. mucogenicum group, M. mucogenicum, read-out: MIC",≤ 16 mg/L
same,MIC,"M. mucogenium group; isolate 41, M. mucogenicum group, M. mucogenicum, read-out: MIC",≤ 16 mg/L
same,MIC,"M. mucogenium group; isolate 42, M. mucogenicum group, M. mucogenicum, read-out: MIC",≤ 16 mg/L
same,MIC,"M. mucogenium group; isolate 43, M. mucogenicum group, M. phocaicum, read-out: MIC",≤ 16 mg/L
same,MIC,"M. mucogenium group; isolate 44, M. mucogenicum group, M. phocaicum, read-out: MIC",≤ 16 mg/L
same,MIC,"M. mucogenium group; isolate 45, M. mucogenicum group, M. phocaicum, read-out: MIC",≤ 16 mg/L
same,MIC,"M. mucogenium group; isolate 46, M. mucogenicum group, M. phocaicum, read-out: MIC",≤ 16 mg/L
same,MIC,"M. mucogenium group; isolate 47, M. mucogenicum group, M. phocaicum, read-out: MIC",≤ 16 mg/L
same,MIC,"M. mucogenium group; isolate 48, M. mucogenicum group, M. phocaicum, read-out: MIC",≤ 16 mg/L
same,MIC,"M. smegmatis group; Mycolicibacterium smegmatis, isolate 49, M. smegmatis group, M. goodii, read-out: MIC",> 64 mg/L
same,MIC,"M. smegmatis group; Mycolicibacterium smegmatis, isolate 50, M. smegmatis group, M. wolinskyi, read-out: MIC",64 mg/L
"C[C@@H](O)[C@H]1C(=O)N2C(C(=O)O)=C(SCCN=CN)C[C@H]12 [IPM, imipenem]",MIC50,[1],8 mg/L
same,MIC90,[1],16 mg/L
same,MIC,"M. abscessus complex; isolate 1, M. abscessus complex, erm gene type MAB30",8 mg/L
same,MIC,"M. abscessus complex; isolate 2, M. abscessus complex, erm gene type MAB30",16 mg/L
same,MIC,"M. abscessus complex; isolate 3, M. abscessus complex, erm gene type MAB30",8 mg/L
same,MIC,"M. abscessus complex; isolate 4, M. abscessus complex, erm gene type massiliense",8 mg/L
same,MIC,"M. abscessus complex; isolate 5, M. abscessus complex, erm gene type massiliense/subsp. abs hybrid",16 mg/L
same,MIC,"M. abscessus complex; isolate 6, M. abscessus complex, erm gene type Type 1 abscessus",8 mg/L
same,MIC,"M. abscessus complex; isolate 7, M. abscessus complex, erm gene type Type 1 abscessus",8 mg/L
same,MIC,"M. abscessus complex; isolate 8, M. abscessus complex, erm gene type Type 1 abscessus",8 mg/L
same,MIC,"M. abscessus complex; isolate 9, M. abscessus complex, erm gene type Type 1 abscessus",16 mg/L
same,MIC,"M. abscessus complex; isolate 10, M. abscessus complex, erm gene type Type 1 abscessus",16 mg/L
same,MIC,"M. abscessus complex; isolate 11, M. abscessus complex, erm gene type Type 6 abscessus",8 mg/L
same,MIC,"M. abscessus complex; isolate 12, M. abscessus complex, erm gene type Type 6 abscessus",16 mg/L
same,MIC,"M. abscessus complex; isolate 13, M. abscessus complex, erm gene type Type 6 abscessus",8 mg/L
same,MIC,"M. abscessus complex; isolate 14, M. abscessus complex, erm gene type Type 6 abscessus",8 mg/L
same,MIC,"M. abscessus complex; isolate 15, M. abscessus complex, erm gene type Type 7 abscessus",8 mg/L
same,MIC,"M. abscessus complex; isolate 16, M. abscessus complex, erm gene type Type 7 abscessus",8 mg/L
same,MIC,"M. abscessus complex; isolate 17, M. abscessus complex, erm gene type Type 8 abscessus",8 mg/L
same,MIC,"M. chelonae; isolate 18, M. chelonae",16 mg/L
same,MIC,"M. chelonae; isolate 19, M. chelonae",16 mg/L
same,MIC,"M. chelonae; isolate 20, M. chelonae",16 mg/L
same,MIC,"M. chelonae; isolate 21, M. chelonae",32 mg/L
same,MIC,"M. chelonae; isolate 22, M. chelonae",16 mg/L
same,MIC,"M. fortuitum group; isolate 23, M. fortuitum group, M. fortuitum",≤2 mg/L
same,MIC,"M. fortuitum group; isolate 24, M. fortuitum group, M. fortuitum",4 mg/L
same,MIC,"M. fortuitum group; isolate 25, M. fortuitum group, M. fortuitum",≤2 mg/L
same,MIC,"M. fortuitum group; isolate 26, M. fortuitum group, M. porcinum",≤2 mg/L
same,MIC,"M. fortuitum group; isolate 27, M. fortuitum group, M. porcinum",4 mg/L
same,MIC,"M. fortuitum group; isolate 28, M. fortuitum group, M. porcinum/M. boenickei",8 mg/L
same,MIC,"M. fortuitum group; isolate 29, M. fortuitum group, M. porcinum/M. boenickei",4 mg/L
same,MIC,"M. fortuitum group; isolate 30, M. fortuitum group, M. porcinum/M. boenickei",≤2 mg/L
same,MIC,"M. fortuitum group; isolate 31, M. fortuitum group, M. senegalense",≤2 mg/L
same,MIC,"M. fortuitum group; isolate 32, M. fortuitum group, M. senegalense",≤2 mg/L
same,MIC,"M. fortuitum group; isolate 33, M. fortuitum group, M. senegalense",≤2 mg/L
same,MIC,"M. fortuitum group; isolate 34, M. fortuitum group, M. senegalense",≤2 mg/L
same,MIC,"M. immunogenum group; isolate 35, M. immunogenum group",16 mg/L
same,MIC,"M. immunogenum group; isolate 36, M. immunogenum group",32 mg/L
same,MIC,"M. immunogenum group; isolate 37, M. immunogenum group",16 mg/L
same,MIC,"M. immunogenum group; isolate 38, M. immunogenum group",32 mg/L
same,MIC,"M. mucogenium group; isolate 39, M. mucogenicum group, M. mucogenicum",≤2 mg/L
same,MIC,"M. mucogenium group; isolate 40, M. mucogenicum group, M. mucogenicum",≤2 mg/L
same,MIC,"M. mucogenium group; isolate 41, M. mucogenicum group, M. mucogenicum",≤2 mg/L
same,MIC,"M. mucogenium group; isolate 42, M. mucogenicum group, M. mucogenicum",≤2 mg/L
same,MIC,"M. mucogenium group; isolate 43, M. mucogenicum group, M. phocaicum",≤2 mg/L
same,MIC,"M. mucogenium group; isolate 44, M. mucogenicum group, M. phocaicum",≤2 mg/L
same,MIC,"M. mucogenium group; isolate 45, M. mucogenicum group, M. phocaicum",≤2 mg/L
same,MIC,"M. mucogenium group; isolate 46, M. mucogenicum group, M. phocaicum",≤2 mg/L
same,MIC,"M. mucogenium group; isolate 47, M. mucogenicum group, M. phocaicum",≤2 mg/L
same,MIC,"M. mucogenium group; isolate 48, M. mucogenicum group, M. phocaicum",≤2 mg/L
same,MIC,"M. smegmatis group; isolate 49, M. smegmatis group, M. goodii",4 mg/L
same,MIC,"M. smegmatis group; isolate 50, M. smegmatis group, M. wolinskyi",4 mg/L

# — patent US20250332178A1, “METHODS OF TREATING MYCOBACTERIAL INFECTIONS USING TETRACYCLINE COMPOUNDS” (priority 2018, published 2025)
